Results reported in patent US7122294B2, “Photoacid generators with perfluorinated multifunctional anions” (3M Innovative Properties Company, priority 2003, dated 2006).
Where “and” joins values, the source holds several entries; their conditions need not be identical. Equal values may be shown once.

Tests used:
Design in all cases: PDSC Peak Max / PDSC Induction Time: unit not given here
[1] = Photo-DSC/DSC cationic curing activity of PAGs in VEX 5015; settings: for PDSC Energy: VEX 5015, 1.0% PAG, 0.1% ITX, light exposure 5 min at 30° C.; for DSC after PDSC Energy / DSC after PDSC Onset Temp / DSC after PDSC Peak Max / PDSC Induction Time / DSC Only (dark) Onset Temp / PDSC Peak Max: VEX 5015; for DSC after PDSC Energy / DSC after PDSC Onset Temp / DSC after PDSC Peak Max: DSC scan after light exposure; for DSC after PDSC Onset Temp / DSC after PDSC Peak Max / DSC Only (dark) Onset Temp: two values = two exotherms; for PDSC Induction Time: light exposure at 30° C.; for DSC Only (dark) Onset Temp: no prior light exposure; for PDSC Peak Max: time to peak maximum of curing exotherm at 30° C.
Description: (§1) Photo-DSC/DSC: Standard (hermetic) liquid sample pans were used. Sample size was kept in the 6 to 8 mg range. Samples were tested using a Dupont Photo-DSC/DSC instrument (available from DuPont, Wilmington, Del.). The light source was a 200 W Hg lamp that delivered about 60 mw/cm at the sample. Samples were exposed in open pans for 5 minutes to the light source at 30° C. then removed from the instrument, sealed and a standard DSC scan run at 10° C./minute to 300° C. A separate DSC experiment was carried out using a sealed sample pan and no prior light exposure to determine the dark reactivity of these PAGs. Comparison of the DSC traces before and after light exposure enables differentiation between the thermal reactivity of the PAGs (in the dark) and their photochemical activity.
(§2) This example describes photo-DSC/DSC experiments designed to quantitatively compare the relative cationic curing reactivities of PAGs of the present invention containing difunctional fluoroorganic sulfonate anions with related PAGs having identical cations and monofunctional perfluoroalkanesulfonate anions. Relative reactivities were measured in three different cationically polymerizable monomer systems, including two different types of epoxies and one vinyl ether.
(§3) The photo-DSC experiment provides information on the photo-cure speed at 30° C. as measured by the induction time (onset) and time to reach the peak maximum in the curing exotherm. […] The energy released under the curing exotherm is a measure of the extent of cure; larger values mean more cure has taken place during the light exposure. […] Comparison with the DSC traces recorded with no prior light exposure provides a measure of the increase in activity after photoactivation of the PAG.
(§4) General: Stock solutions of three cationically curable monomers were prepared as shown in Table 3 with 0.1% (w/w) isopropylthioxanthone (ITX). Epon 828 is a difunctional glycidyl ether epoxy from Shell, ERL-4221 is a difunctional cycloaliphatic epoxy from Union Carbide and VEX 5015 is a trifunctional vinyl ether from Allied Signal. Because of the low sensitivity of these compositions to room lights, all sample preparation was done with the lab lights on but the hood lights off. All PAGs were formulated at 1.0% by weight in the stock monomer/sensitizer solutions. Into a small aluminum pan was weighed 0.02 g of PAG and 0.04 g of propylene carbonate used to promote dissolution of the PAG in the monomer. The pan was heated briefly on a hot plate set at 100° C. to dissolve the PAG, then 2.0 g the stock monomer/sensitizer solution was added. The solution was briefly heated again on a hot plate set at 100° C. to allow complete mixing of the components, then the solution was allowed to cool to room temperature before using.

[2] = Photo-DSC/DSC cationic curing activity of PAGs in Epon 828; settings: for PDSC Energy: Epon 828, 1.0% PAG, 0.1% ITX, light exposure 5 min at 30° C.; for DSC after PDSC Onset Temp / DSC after PDSC Energy / DSC after PDSC Peak Max / PDSC Induction Time / DSC Only (dark) Energy / DSC Only (dark) Onset Temp / DSC Only (dark) Peak Max / PDSC Peak Max: Epon 828; for DSC after PDSC Onset Temp: DSC scan 10° C./minute after light exposure; for DSC after PDSC Energy / DSC after PDSC Peak Max: DSC scan after light exposure; for PDSC Induction Time: light exposure at 30° C.; for DSC Only (dark) Energy / DSC Only (dark) Onset Temp / DSC Only (dark) Peak Max: no prior light exposure; for PDSC Peak Max: time to peak maximum of curing exotherm at 30° C.
Description: as §1, §2, §3, §4

[3] = Photo-DSC/DSC cationic curing activity of PAGs in ERL-4221; settings: for PDSC Energy: ERL-4221, 1.0% PAG, 0.1% ITX, light exposure 5 min at 30° C.; for DSC after PDSC Onset Temp / DSC after PDSC Energy / DSC after PDSC Peak Max / PDSC Induction Time / DSC Only (dark) Energy / DSC Only (dark) Onset Temp / DSC Only (dark) Peak Max / PDSC Peak Max: ERL-4221; for DSC after PDSC Onset Temp: DSC scan 10° C./minute after light exposure; for DSC after PDSC Energy / DSC after PDSC Peak Max: DSC scan after light exposure; for PDSC Induction Time: light exposure at 30° C.; for DSC Only (dark) Energy / DSC Only (dark) Onset Temp / DSC Only (dark) Peak Max: no prior light exposure; for PDSC Peak Max: time to peak maximum of curing exotherm at 30° C.
Description: as §1, §2, §3, §4

Structure (SMILES) | PDSC Energy [1] [J/g] | DSC after PDSC Energy [1] [J/g] | DSC after PDSC Onset Temp [1] [C.°] | DSC after PDSC Peak Max [1] [°C] | PDSC Induction Time [1] | DSC Only (dark) Onset Temp [1] | PDSC Peak Max [1] | PDSC Energy [2] [J/g] | DSC after PDSC Onset Temp [2] [C.°] | DSC after PDSC Energy [2] [J/g] | DSC after PDSC Peak Max [2] [°C] | PDSC Induction Time [2] | DSC Only (dark) Energy [2] [J/g] | DSC Only (dark) Onset Temp [2] [C.°] | DSC Only (dark) Peak Max [2] [°C] | PDSC Peak Max [2] | PDSC Energy [3] [J/g] | DSC after PDSC Onset Temp [3] [C.°] | DSC after PDSC Energy [3] [J/g] | DSC after PDSC Peak Max [3] [°C] | further results
CC(C)(C)c1ccc([I+]c2ccc(C(C)(C)C)cc2)cc1.O=S(=O)([O-])C(F)(F)C(F)(F)C(F)(F)C(F)(F)C(F)(F)C(F)(F)C(F)(F)C(F)(F)F [DTBPI-PFOS, reference compound] | 230 | 24 | 140 | 163 | 1.1 | 100, C.° and 160 C.° | 3.2 | 4 | 100 | 566 | 197 | 18.9 | 608 | 175 | 238 | 28.4 | 4 | 65 | 560 | 155 | PDSC Induction Time [3]: 14.8; DSC Only (dark) Energy [3]: 583 J/g; DSC Only (dark) Onset Temp [3]: 150 C.°; DSC Only (dark) Peak Max [3]: 190; PDSC Peak Max [3]: 22.4
CC(C)(C)c1ccc([I+]c2ccc(C(C)(C)C)cc2)cc1.O=S(=O)([O-])C(F)(F)C(F)(F)C(F)(F)C(F)(F)F [DTBPI-ONf, reference compound] | 242 | 31 | 125 | 159 | 0.9 | 100, C.° and 155 C.° | 2.8 | 10 | 100 | 558 | 190 | 12.5 | 606 | 175 | 232 | 21.2 | 5 | 50 | 577 | 148 | PDSC Induction Time [3]: 15.7; DSC Only (dark) Energy [3]: 566 J/g; DSC Only (dark) Onset Temp [3]: 150 C.°; DSC Only (dark) Peak Max [3]: 192; PDSC Peak Max [3]: 24
